{"source": "paper PMC11960969", "about": "“Mdga2 deficiency leads to an aberrant activation of BDNF/TrkB signaling that underlies autism-relevant synaptic and behavioral changes in mice” (PLOS Biology, 2025)", "key": {"[1]": {"system": "TrkB signaling and synaptic proteins (pTrkB, pAkt, pmTOR, NLGN1, PSD-95, PSD-93)", "assay": "Immunoblotting of TrkB signaling and synaptic proteins in primary neurons treated with ANA-12", "type": "cell-based, mouse", "settings": "primary neurons from Mdga2+/- and Mdga2-/- mice, 10 μM, 24 h, n = 3"}, "[2]": {"system": "TrkB signaling (pTrkB, pAkt, pmTOR)", "assay": "Immunoblotting of TrkB signaling in hippocampus / brain of treated mice", "type": "in vivo, mouse", "settings": "AAV-Mdga2 shRNA mice, n = 4, Fig 6E and 6H"}, "[3]": {"system": "mice", "assay": "Open field test", "type": "in vivo, mouse", "experimental": "(§1) Six- to eight-week-old male mice were subjected to various behavioral tests. Mice were allowed to acclimatize in the testing room for 1 h prior to each test. Data were recorded and analyzed using Smart 3.0 video tracking system (Panlab, Harvard Apparatus).\nMice were gently placed in the center of an open field apparatus (40 × 40 × 40 cm), and allowed for a 10-min period of free movement. Total distance traveled and time spent in center were analyzed."}, "[4]": {"system": "mice", "assay": "Novel location recognition (NLR) test", "type": "in vivo, mouse", "experimental": "as §1\nThis test consists of habituation, training, and testing phases. Mice were first put into the open field apparatus described above for 10 min habituation. During the training phase, mice were allowed to freely explore two identical objects placed near two opposite corners of the open field arena for 8 min. Twenty-four hour later, one of the objects was moved to be close to a third corner (N: Novel location) while the other one was kept in the same spatial position (F: Familiar location). Mice were then tested for their exploration behavior with these objects for 8 min. The discrimination index (T(N − F)/T(N + F): time spent exploring the novel location minus time spent in familiar location over time spent to both novel and familiar location) was calculated to assess the recognition memory of mice."}, "[5]": {"system": "mice", "assay": "Social affiliation test", "type": "in vivo, mouse", "settings": "Mdga2+/- mice", "experimental": "as §1\nThe test procedure was similar to that described previously. Briefly, a cylinder (8.5 cm in diameter) with a gender-matched reference mouse confined was placed at a specific location in an open field (40 cm in diameter). Tested mice were allowed to move freely in the open field for 7 min and their sniffing time with the reference mice was analyzed."}, "[6]": {"system": "CA1 pyramidal neurons (mEPSC, mIPSC)", "assay": "Whole-cell recording of mEPSCs and mIPSCs in hippocampal slices", "design": "species or system mouse", "settings": "chronic 0.5 mg/kg i.p."}, "[7]": {"system": "AMPAR and NMDAR (evoked EPSCs)", "assay": "Evoked AMPAR- and NMDAR-mediated EPSCs and AMPAR/NMDAR ratio in hippocampal slices", "design": "species or system mouse"}, "[8]": {"system": "cell surface GluA1, GluN1", "assay": "Cell surface biotinylation of GluA1 and GluN1 in hippocampal neurons", "type": "cell-based, mouse", "settings": "10 μM ANA-12, 24 h, 12 DIV", "experimental": "ANA-12 was dissolved in saline containing 10% DMSO to a final concentration of 0.5 mg/kg and intraperitoneally administered into male mice. For chronic treatment, ANA-12 was administered to 3-week-old male mice at twice/week for 3 weeks until mice reached 6 weeks of age. For acute treatment, ANA-12 was administered to 4-week-old male mice for three consecutive days. For and cultured neurons, ANA-12 was suspended to a 10 mM concentration in DMSO and diluted 1:1,000 in solution. Final concentration for treatment is 10 µ M with 0.1% DMSO.\nSupplementary file pbio.3003047.s005.tif: S5 Fig Pharmacological inhibition of […] improves social behaviors in Mdga2 ^+/− mice. (A, B) The miniature inhibitory postsynaptic currents (mIPSCs) of hippocampal neurons in treated Het mice and their wild-type (WT) littermates were recorded and their kinetics (rise time and decay) were quantified for comparison. n = 14 cells from 3 mice per group. (C, D) The miniature excitatory postsynaptic currents (mEPSCs) of hippocampal neurons in treated mice were recorded and their kinetics (rise time and decay) were quantified for comparison. n = 14 cells from 3 mice per group. (E) Representative traces of evoked NMDAR-mediated EPSCs and quantitative analysis of evoked NMDAR-mediated EPSC amplitude with increasing stimulus intensity. n = 20–23 cells from 3 mice per group. […]"}}, "data": [{"smiles": "O=C(Nc1ccccc1C(=O)NC1CCCCNC1=O)c1cc2ccccc2s1", "note": "(centres unmarked) [ANA-12, reference compound]", "values": [{"measurement": "increased levels of pTrkB, pAkt, pmTOR, NLGN1, PSD-95, and PSD-93", "setting": "[1]", "result": "effectively reversed increased levels of pTrkB, pAkt, pmTOR, NLGN1, PSD-95, and PSD-93"}, {"measurement": "elevated TrkB signaling", "setting": "[2]", "result": "reversed the elevated TrkB signaling"}, {"measurement": "locomotor activity", "setting": "[3]; Mdga2+/- mice, chronic 0.5 mg/kg i.p. twice per week 3 weeks, Test 1 Interaction F(1,56) = 0.2753, p = 0.6019, Test 2 F(1,56) = 0.2774, p = 0.6005", "result": "did not affect the locomotor activity"}, {"measurement": "locomotor activity", "setting": "[3]; acute: 0.5 mg/kg i.p. once daily 3 days, Test 1 Interaction F(1,56) = 0.3413, p = 0.5614, Test 2 F(1,56) = 0.1904, p = 0.6643", "result": "did not affect locomotor activity"}, {"measurement": "impaired recognition memory", "setting": "[4]; AAV-Mdga2 shRNA mice, S6C and S6G Fig", "result": "neither ANA-12 nor the MDGA2-P2 peptide had effect on rescuing impaired recognition memory"}, {"measurement": "impaired cognitive function", "setting": "[4]; Mdga2+/- mice, acute 0.5 mg/kg i.p. 3 days, Test 1 Interaction F(1,56) = 3.941, p = 0.0520, Test 2 F(1,56) = 0.9635, p = 0.3305", "result": "nor did it attenuate impaired cognitive function"}, {"measurement": "recognition memory", "setting": "[4]; Mdga2+/- mice, chronic 0.5 mg/kg i.p. twice per week 3 weeks, Test 1 Interaction F(1,56) = 0.6210, p = 0.4340, Test 2 F(1,56) = 0.7506, p = 0.3900", "result": "did not affect the locomotor activity (Fig 5B) or recognition memory"}, {"measurement": "social preference (social affiliation)", "setting": "[5]; acute 0.5 mg/kg i.p. 3 days, acute Test 1 (1 day): Interaction F(1,56) = 7.214, p = 0.0095", "result": "significantly higher social preference compared to controls in acute Test 1"}, {"measurement": "impaired social affiliation", "setting": "[5]; chronic 0.5 mg/kg i.p., Test 1 (1 week) Interaction F(1,56) = 10.07, p = 0.0024, Test 2 (5 weeks) F(1,56) = 4.906, p = 0.0309", "result": "significantly improved impaired social affiliation in Mdga2^ +/− mice in both chronic Test 1 and chronic Test 2"}, {"measurement": "increased mEPSC amplitude and frequency", "setting": "[6]; Mdga2+/- mice, CA1, n = 14 cells from 3 mice, Interaction F(1,52) = 6.023, p = 0.0175, 5.282, p = 0.0256", "result": "reversed the increased mEPSC amplitude and frequency"}, {"measurement": "mIPSC frequency or amplitude", "setting": "[6]; hippocampal slices CA1, n = 15 cells from 3 mice, Interaction F(1,56) = 0.5436, p = 0.4640, 0.0127, p = 0.9106", "result": "nor did chronic ANA-12 treatment affect mIPSC frequency or amplitude"}, {"measurement": "elevated AMPAR/NMDAR response ratios", "setting": "[7]", "result": "effectively attenuated upon chronic ANA-12 treatment"}, {"measurement": "elevated evoked AMPAR-mediated EPSCs", "setting": "[7]; Mdga2+/- mice, chronic 0.5 mg/kg i.p., n = 20-21 cells from 3 mice, Fig 5J", "result": "effectively attenuated upon chronic ANA-12 treatment"}, {"measurement": "cell surface distribution of GluA1 in MDGA2-deficient vs WT neurons", "setting": "[8]", "result": "became comparable between these neurons upon ANA-12 treatment"}]}]}
